This note sets out measurements from patent US4570006A, “Amidine compound, process for producing same and anti-complement agent comprising same” (Torii & Co. Ltd., priority 1981, dated 1986).

One assay addresses T1, Cls (Homo sapiens, UniProt P09871).
T1 sequence (P09871 438-688 limits assumed): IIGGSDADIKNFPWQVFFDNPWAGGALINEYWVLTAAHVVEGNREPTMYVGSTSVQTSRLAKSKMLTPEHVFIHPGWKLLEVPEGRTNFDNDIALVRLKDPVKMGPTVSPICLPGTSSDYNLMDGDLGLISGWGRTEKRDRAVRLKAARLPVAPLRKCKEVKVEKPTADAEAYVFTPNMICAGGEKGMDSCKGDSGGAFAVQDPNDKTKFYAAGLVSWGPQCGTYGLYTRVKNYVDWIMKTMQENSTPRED
T1 sequence (P09871 16-437 limits assumed): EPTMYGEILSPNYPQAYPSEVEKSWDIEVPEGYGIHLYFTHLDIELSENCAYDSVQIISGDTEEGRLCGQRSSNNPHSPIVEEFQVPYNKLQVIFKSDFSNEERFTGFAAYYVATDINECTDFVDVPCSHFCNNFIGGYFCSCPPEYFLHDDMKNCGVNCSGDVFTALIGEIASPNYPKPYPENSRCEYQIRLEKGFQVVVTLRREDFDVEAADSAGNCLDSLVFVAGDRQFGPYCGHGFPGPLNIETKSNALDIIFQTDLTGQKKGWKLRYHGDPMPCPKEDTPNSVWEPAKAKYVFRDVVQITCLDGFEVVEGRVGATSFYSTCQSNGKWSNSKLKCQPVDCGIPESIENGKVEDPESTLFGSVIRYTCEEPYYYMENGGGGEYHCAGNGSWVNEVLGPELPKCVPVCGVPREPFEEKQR
Kind of assay: Anti-Cl esterase activity, Cls (ATEE hydrolysis). Format: biochemical. The following applies: hydrolysis of ATEE; read-out: Anti-Cl activity, Cls (50% inhibition). Here is the method: The anti-Cl esterase (Clr, Cls) activity was determined according to the method of Okamura et al. [K. Okamura, M. Muramatsu and B. Fujii, Biochem. Biophys. […] The figures in Table 2 have the following meanings:
Cls: Molar concentration of the test compound which inhibits 50% of the ability of Cls to hydrolyse ATEE (acetyltyrosin ethyl ester).

For the next assay, the target named is T2, Clr (Homo sapiens, UniProt P00736).
T2 sequence (P00736 464-705 limits assumed): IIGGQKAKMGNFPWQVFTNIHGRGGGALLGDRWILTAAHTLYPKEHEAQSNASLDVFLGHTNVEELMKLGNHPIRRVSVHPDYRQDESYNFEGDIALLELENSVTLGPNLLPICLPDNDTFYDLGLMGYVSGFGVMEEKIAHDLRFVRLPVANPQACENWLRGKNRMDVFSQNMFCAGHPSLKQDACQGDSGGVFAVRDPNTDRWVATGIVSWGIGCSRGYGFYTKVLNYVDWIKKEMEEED
T2 sequence (P00736 18-463 limits assumed): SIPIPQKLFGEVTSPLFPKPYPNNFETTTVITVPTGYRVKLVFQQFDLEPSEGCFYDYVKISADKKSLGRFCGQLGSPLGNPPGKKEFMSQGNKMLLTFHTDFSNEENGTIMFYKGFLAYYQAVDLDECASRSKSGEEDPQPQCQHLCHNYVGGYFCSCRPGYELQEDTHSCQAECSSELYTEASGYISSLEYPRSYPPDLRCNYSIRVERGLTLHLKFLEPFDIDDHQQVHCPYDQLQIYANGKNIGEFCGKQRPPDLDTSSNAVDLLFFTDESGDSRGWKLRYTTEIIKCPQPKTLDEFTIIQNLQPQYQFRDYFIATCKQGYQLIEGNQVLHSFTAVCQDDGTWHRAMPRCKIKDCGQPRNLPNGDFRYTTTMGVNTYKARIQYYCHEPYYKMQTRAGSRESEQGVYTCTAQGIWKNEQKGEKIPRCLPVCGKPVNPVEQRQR
Kind of assay: Anti-Cl esterase activity, Clr (AAME hydrolysis). Format: biochemical. The following applies: hydrolysis of AAME; read-out: Anti-Cl activity, Clr (ID50). Here is the method: The anti-Cl esterase ([…]) activity was determined according to the method of Okamura et al. [K. Okamura, M. Muramatsu and B. Fujii, Biochem. Biophys.

The next assay relates to complement. The experiment in a line: Inhibition of complement mediated hemolysis. It is filed as cell-based. Here is the method: The complement mediated hemolysis is widely used as a means to determine the titration of complement. The principle of this method is based on the fact that hemolysis if caused by the activation of complement, when the latter is added to a complex (immune complex) of erythrocytes and the antibody thereof. The degree of hemolysis varies in proportion to the amount of complement added. Therefore, when a known amount of complement admixed with a Cl esterase inhibitor is used, the hemolysis must be suppressed in proportion to the inhibitory activity.
The anti-Cl esterase (Clr, Cls) activity was determined according to the method of Okamura et al. [K. Okamura, M. Muramatsu and B. Fujii, Biochem. Biophys. […] The figures in Table 2 have the following meanings: […]

A further assay deals with Plasmin (Homo sapiens, UniProt P00747). The experiment in a line: Anti-plasmin activity (inhibition of TAME hydrolysis). The settings on record: read-out: ID50, plasmin. It is filed as biochemical. Here is the method:
(§1) The anti-trypsin, anti-plasmin, anti-kallikrein and anti-thrombin activities were determined according to the method of Muramatsu et al. [M. Muramatsu, T. Onishi, S. Makino, Y. Hayashi and S. Fujii, J. of Biochem., 58, 214 (1965)]. The data summarized in Table 1 are expressed in terms of molar concentration (ID50) of the test compound which inhibits 50% of the activity of each enzyme to hydrolyze TAME (tosylarginine methyl ester). The compound No. corresponds to the compound number shown in Examples.

For another assay, the system named is Kallikrein. Kind of assay: Anti-kallikrein activity (inhibition of TAME hydrolysis). Format: biochemical. The following applies: read-out: ID50, kallikrein. Here is the method:
as §1

Another assay addresses T3, Trypsin (Bos taurus, UniProt P00760).
T3 sequence (P00760 24-246): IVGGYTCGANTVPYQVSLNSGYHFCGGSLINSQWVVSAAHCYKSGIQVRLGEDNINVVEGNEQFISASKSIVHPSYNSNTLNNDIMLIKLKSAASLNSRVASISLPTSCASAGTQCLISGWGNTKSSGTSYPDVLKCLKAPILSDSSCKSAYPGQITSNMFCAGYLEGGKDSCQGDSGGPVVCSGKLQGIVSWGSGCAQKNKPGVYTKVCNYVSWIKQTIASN
The experiment in a line: Anti-trypsin activity (inhibition of TAME hydrolysis). Format: biochemical. The following applies: read-out: ID50, trypsin. Here is the method:
as §1

Sequence of Plasmin (P00747 581-810 limits assumed, species assumed): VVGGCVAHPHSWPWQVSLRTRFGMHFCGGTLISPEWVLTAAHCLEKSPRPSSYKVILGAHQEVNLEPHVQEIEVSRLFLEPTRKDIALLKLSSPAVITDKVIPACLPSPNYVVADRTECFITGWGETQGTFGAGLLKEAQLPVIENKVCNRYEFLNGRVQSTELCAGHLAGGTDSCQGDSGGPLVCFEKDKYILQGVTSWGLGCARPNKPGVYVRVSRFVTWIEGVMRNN
Sequence of Plasmin (P00747 97-580 limits assumed, species assumed): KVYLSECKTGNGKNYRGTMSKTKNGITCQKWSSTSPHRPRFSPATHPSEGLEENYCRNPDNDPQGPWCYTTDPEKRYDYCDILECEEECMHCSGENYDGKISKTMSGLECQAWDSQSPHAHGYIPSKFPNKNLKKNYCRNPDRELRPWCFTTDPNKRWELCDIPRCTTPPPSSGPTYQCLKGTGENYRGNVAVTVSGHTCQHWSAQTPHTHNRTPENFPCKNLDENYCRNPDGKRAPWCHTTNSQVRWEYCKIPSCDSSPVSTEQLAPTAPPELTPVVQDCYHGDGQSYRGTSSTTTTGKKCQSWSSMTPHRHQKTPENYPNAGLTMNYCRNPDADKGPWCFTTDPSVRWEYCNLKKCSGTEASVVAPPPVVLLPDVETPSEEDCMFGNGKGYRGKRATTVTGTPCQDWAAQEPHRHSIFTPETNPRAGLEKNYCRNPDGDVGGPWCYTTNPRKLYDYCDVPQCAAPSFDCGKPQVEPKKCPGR

In the case of `CCC(=Cc1ccc(NC(=N)N)cc1)C(=O)Oc1ccc(C(=N)N)cc1C(=O)c1ccccc1` [Compound 74], the IC50 is 3 µM at Cls and above 10 µM on Clr. In addition, the “Inhibition of complement mediated hemolysis (%)” value (“Inhibition … (%)” for short) in the assay on complement (compound at 1 × 10^-4) is recorded as 55.4%; in the assay on complement (compound at 1 × 10^-5) it was 5.7%; in the assay with complement (compound at 1 × 10^-6), 3.6%; in the assay on complement (compound at 1 × 10^-7), 0%.
As to `Cc1cccc(Nc2ccccc2C(=O)Oc2ccc(C(=N)N)cc2C(=O)c2ccccc2)c1C` [Compound 87], the IC50 at Cls was 5 µM; at Clr, above 10 µM. The “Inhibition … (%)” value in the assay with complement (compound at 1 × 10^-4), in the assay with complement (compound at 1 × 10^-5), in the assay on complement (compound at 1 × 10^-6) and with complement (compound at 1 × 10^-7) was 0% in each case.
As to `COc1cc(C(=N)N)ccc1OC(=O)c1ccc([N+](=O)[O-])c(C)c1` [Compound 80], the IC50 on Cls and on Clr was above 10 µM throughout. For the same compound, the “Inhibition … (%)” value in the assay with complement (compound at 1 × 10^-4) worked out at 66.5%; in the assay with complement (compound at 1 × 10^-5) it was 6.9%; in the assay on complement (compound at 1 × 10^-6), 0%; in the assay with complement (compound at 1 × 10^-7), 0%.
Turning to `CN(C(=N)N)c1ccc(C(=O)Oc2ccc(C(=N)N)cc2C(=O)c2ccccc2)cc1` [Compound 78], the IC50 at Clr was above 10 µM. The “Inhibition … (%)” value was determined as 97.4% in the assay on complement (compound at 1 × 10^-4), 58.8% in the assay with complement (compound at 1 × 10^-5), 7.0% in the assay on complement (compound at 1 × 10^-6) and 0% in the assay with complement (compound at 1 × 10^-7).
Take `COC(=O)c1cc(C(=N)N)ccc1OC(=O)c1ccc(NC(=N)N)cc1` [Compound 72]: the IC50 at Cls was 0.2 µM; at Clr, 1 µM. The “Inhibition … (%)” value in the assay on complement (compound at 1 × 10^-4) came out at 100%; in the assay with complement (compound at 1 × 10^-5), 87.8%; in the assay on complement (compound at 1 × 10^-6), 10.8%; with complement (compound at 1 × 10^-7) it was 0%.
Regarding `N#Cc1ccc(C(=O)Oc2ccc(C(=N)N)cc2C(=O)c2ccccc2)cc1` [Compound 83], the IC50 on Cls worked out at 4 µM; on Clr it was 9 µM. The results for the “Inhibition … (%)” value with complement (compound at 1 × 10^-4), in the assay on complement (compound at 1 × 10^-5) and in the assay on complement (compound at 1 × 10^-6) were 100%, 90.2% and 12.9%, respectively.
For the compound `COc1cc(C(=N)N)ccc1OC(=O)c1ccc(NC(=N)N)c(C)c1` [Compound 75], the IC50 at Cls worked out at 3 µM; on Clr, 8 µM. Moreover, the “Inhibition … (%)” value in the assay with complement (compound at 1 × 10^-4) is listed as 45.2%; in the assay on complement (compound at 1 × 10^-5), 3.2%; in the assay on complement (compound at 1 × 10^-6), 0%; in the assay on complement (compound at 1 × 10^-7) it was 0%.
Regarding `N=C(N)Nc1ccc(C(=O)Oc2ccc(C(=N)N)cc2C(=O)c2ccccc2)c(Cl)c1` [Compound 77], the IC50 was 0.8 µM on Cls and above 10 µM on Clr. Also, the “Inhibition … (%)” value stood at 97.3% in the assay with complement (compound at 1 × 10^-4), 48.9% in the assay with complement (compound at 1 × 10^-5), 1.8% in the assay on complement (compound at 1 × 10^-6) and 0% in the assay with complement (compound at 1 × 10^-7).
In the case of `N=C(N)c1ccc(OC(=O)C2CC2)c(C(=O)c2ccccc2)c1` [Compound 8], the IC50 is 2 µM at Plasmin, above 10 µM on Clr, 3 µM in the assay on Kallikrein and 2 µM at Trypsin. The “Inhibition … (%)” value in the assay with complement (compound at 1 × 10^-5) came out at 90.5%; in the assay on complement (compound at 1 × 10^-6), 22.0%; in the assay on complement (compound at 1 × 10^-7), 0%.
As to `COc1cc(C(=N)N)ccc1OC(=O)c1ccc(NC(=N)N)cc1Cl` [Compound 76], the IC50 at Cls and at Clr was above 10 µM throughout. Moreover, the “Inhibition … (%)” value in the assay on complement (compound at 1 × 10^-4) amounted to 34.8%; in the assay with complement (compound at 1 × 10^-5) it was 4.8%; in the assay on complement (compound at 1 × 10^-6), 0%; in the assay on complement (compound at 1 × 10^-7), 0%.
With `COC(=O)c1cc(C(=N)N)ccc1OC(=O)c1ccc(F)cc1` [Compound 84], the IC50 at Cls was 0.4 µM; on Clr, above 10 µM. Besides, the “Inhibition … (%)” value in the assay on complement (compound at 1 × 10^-4) worked out at 98.6%; in the assay on complement (compound at 1 × 10^-5), 67.7%; in the assay on complement (compound at 1 × 10^-6), 2.0%; in the assay on complement (compound at 1 × 10^-7), 0%.
On to `CNC(=S)Nc1ccc(C(=O)Oc2ccc(C(=N)N)cc2C(=O)c2ccccc2)cc1` [Compound 79], for which the IC50 on Clr was above 10 µM. Also, the “Inhibition … (%)” value with complement (compound at 1 × 10^-4) is given as 95.1%; with complement (compound at 1 × 10^-5), 96.8%; in the assay with complement (compound at 1 × 10^-6) it was 81.7%; in the assay with complement (compound at 1 × 10^-7), 48.1%.
Take `Cc1cc(C(=O)Oc2ccc(C(=N)N)cc2C(=O)c2ccccc2)ccc1[N+](=O)[O-]` [Compound 81]: the IC50 on Cls and at Clr was above 10 µM each time. In addition, the “Inhibition … (%)” value in the assay on complement (compound at 1 × 10^-4) is 98.2%; in the assay on complement (compound at 1 × 10^-5), 71.6%; with complement (compound at 1 × 10^-6), 4.2%; in the assay on complement (compound at 1 × 10^-7), 0%.
Turning to `N=C(N)c1ccc(OC(=O)c2ccc(F)cc2)c([N+](=O)[O-])c1` [Compound 85], the IC50 is 0.5 µM on Cls and 0.6 µM on Clr. For the same compound, the “Inhibition … (%)” value was determined as 98.6% in the assay on complement (compound at 1 × 10^-4), 97.9% in the assay on complement (compound at 1 × 10^-5), 67.1% in the assay with complement (compound at 1 × 10^-6) and 7.0% in the assay with complement (compound at 1 × 10^-7).
On to `COc1cc(C(=N)N)ccc1OC(=O)CCCc1ccc([N+](=O)[O-])cc1` [Compound 82], for which the IC50 at Cls and on Clr was above 10 µM in each case. Also, the “Inhibition … (%)” value turned out to be 29.8% with complement (compound at 1 × 10^-4), 0% in the assay on complement (compound at 1 × 10^-5), 0% in the assay with complement (compound at 1 × 10^-6) and 0% in the assay on complement (compound at 1 × 10^-7).
